In patent US8957078B2, “Compounds useful as inhibitors of ATR kinase” (Vertex Pharmaceuticals Incorporated, priority 2013, dated 2015):
pKi: −log10 of the molar value.

Columns and labels:
[1] = biological target: T1, ATR kinase (full-length ATR) (Homo sapiens, UniProt Q13535); experiment: ATR Inhibition Assay (radioactive-phosphate incorporation); format: biochemical; conditions: Ki(app); 5 nM full-length ATR, 10 μM ATP, 800 μM target peptide, 25° C.
T1 construct: in the presence of 5 nM full-length ATR
T1 sequence (Q13535 whole entry): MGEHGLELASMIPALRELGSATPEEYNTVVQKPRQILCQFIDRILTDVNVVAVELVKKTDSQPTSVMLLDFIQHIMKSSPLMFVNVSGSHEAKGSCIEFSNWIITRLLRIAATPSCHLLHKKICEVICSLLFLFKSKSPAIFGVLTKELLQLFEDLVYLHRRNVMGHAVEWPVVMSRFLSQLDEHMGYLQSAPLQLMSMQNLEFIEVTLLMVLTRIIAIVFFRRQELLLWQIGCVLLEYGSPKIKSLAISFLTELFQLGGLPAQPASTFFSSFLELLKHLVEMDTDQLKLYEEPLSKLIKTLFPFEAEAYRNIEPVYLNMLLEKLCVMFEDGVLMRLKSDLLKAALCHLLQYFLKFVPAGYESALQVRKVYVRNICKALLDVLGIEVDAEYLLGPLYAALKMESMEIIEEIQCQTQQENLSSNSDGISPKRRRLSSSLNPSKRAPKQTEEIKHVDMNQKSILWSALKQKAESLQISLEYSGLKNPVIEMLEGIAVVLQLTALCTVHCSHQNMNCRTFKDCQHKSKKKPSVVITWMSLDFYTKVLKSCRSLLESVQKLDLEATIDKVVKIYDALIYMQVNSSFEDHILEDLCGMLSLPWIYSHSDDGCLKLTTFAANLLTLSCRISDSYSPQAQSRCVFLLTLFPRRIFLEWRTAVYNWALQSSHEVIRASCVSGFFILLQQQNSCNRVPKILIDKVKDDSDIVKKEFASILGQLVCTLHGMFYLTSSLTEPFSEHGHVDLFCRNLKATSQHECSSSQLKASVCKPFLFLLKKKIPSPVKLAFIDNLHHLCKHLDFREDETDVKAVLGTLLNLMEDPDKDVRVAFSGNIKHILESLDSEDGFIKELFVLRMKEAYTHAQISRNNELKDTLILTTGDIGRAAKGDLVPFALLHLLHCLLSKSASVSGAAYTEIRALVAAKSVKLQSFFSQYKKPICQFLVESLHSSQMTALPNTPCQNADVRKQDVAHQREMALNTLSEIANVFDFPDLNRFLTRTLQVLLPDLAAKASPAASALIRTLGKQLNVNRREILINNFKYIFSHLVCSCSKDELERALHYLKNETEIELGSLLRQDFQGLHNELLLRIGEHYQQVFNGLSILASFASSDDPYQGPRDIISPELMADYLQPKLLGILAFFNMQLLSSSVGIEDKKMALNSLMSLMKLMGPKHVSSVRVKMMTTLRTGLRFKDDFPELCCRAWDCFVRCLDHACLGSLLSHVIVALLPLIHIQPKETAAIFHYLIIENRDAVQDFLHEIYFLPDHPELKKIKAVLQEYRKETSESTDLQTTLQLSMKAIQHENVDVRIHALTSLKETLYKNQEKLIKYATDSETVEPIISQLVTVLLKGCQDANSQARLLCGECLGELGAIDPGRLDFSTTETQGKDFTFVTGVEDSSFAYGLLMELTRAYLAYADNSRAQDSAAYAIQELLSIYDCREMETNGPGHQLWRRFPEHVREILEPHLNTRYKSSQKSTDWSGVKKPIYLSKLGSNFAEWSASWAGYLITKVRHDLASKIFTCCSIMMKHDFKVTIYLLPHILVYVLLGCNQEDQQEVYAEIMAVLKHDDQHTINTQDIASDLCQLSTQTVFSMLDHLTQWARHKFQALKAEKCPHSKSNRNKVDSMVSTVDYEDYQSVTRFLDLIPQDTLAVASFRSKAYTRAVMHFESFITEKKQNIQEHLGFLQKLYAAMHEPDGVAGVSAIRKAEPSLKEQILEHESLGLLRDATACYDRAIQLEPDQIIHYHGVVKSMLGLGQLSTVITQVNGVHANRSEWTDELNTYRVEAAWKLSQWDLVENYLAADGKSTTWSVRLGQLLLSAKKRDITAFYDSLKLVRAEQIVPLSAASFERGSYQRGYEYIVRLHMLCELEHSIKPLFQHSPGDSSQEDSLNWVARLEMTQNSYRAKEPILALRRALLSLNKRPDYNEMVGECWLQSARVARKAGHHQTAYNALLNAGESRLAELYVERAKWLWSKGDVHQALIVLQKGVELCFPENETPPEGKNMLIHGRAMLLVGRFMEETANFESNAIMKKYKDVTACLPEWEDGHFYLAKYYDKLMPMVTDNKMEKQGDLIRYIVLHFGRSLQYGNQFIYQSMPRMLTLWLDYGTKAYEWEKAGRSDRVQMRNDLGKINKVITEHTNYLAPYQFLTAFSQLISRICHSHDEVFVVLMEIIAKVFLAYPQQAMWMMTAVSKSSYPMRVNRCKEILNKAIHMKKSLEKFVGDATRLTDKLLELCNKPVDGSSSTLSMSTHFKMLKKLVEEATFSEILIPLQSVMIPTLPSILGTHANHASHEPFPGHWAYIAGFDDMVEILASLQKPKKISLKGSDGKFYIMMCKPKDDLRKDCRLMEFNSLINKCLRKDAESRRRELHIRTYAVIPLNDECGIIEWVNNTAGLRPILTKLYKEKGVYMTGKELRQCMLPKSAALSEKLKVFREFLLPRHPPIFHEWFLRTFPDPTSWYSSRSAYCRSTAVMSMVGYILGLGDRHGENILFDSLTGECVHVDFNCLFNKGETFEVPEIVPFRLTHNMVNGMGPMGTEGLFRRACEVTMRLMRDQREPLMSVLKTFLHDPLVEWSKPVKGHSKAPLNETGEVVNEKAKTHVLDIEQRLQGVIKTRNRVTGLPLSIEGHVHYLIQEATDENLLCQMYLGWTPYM

[2] = tested on: HCT116 colorectal cancer cells; experiment: Cisplatin Sensitization Assay (96 h cell viability MTS); format: cell-based; conditions: concentration of compound required to reduce the IC50 of Cisplatin alone by at least 3-fold; HCT116, 96 h MTS
Summary of the method: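 HCT116 cells treated 96 h at 37 °C with compound and cisplatin together as a full matrix of 2-fold dilutions, each from 10 μM final top concentration. Viability by MTS, absorbance 490 nm. Value reported: compound concentration lowering cisplatin IC50 at least 3-fold.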

[3] = biological target: T2, ATR kinase, in the presence of partner proteins ATRIP, CLK2 and TopBP1 (Homo sapiens, UniProt Q13535); experiment: ATR-Complex Inhibition Assay (radioactive-phosphate incorporation); format: biochemical; conditions: Ki(app); 4 nM full-length ATR, 40 nM ATRIP, 40 nM CLK2, 600 nM TopBP1(A891-S1105), 10 μM ATP, 25° C.
T2 construct: in the presence of 4 nM full-length ATR, 40 nM full-length ATRIP
T2 sequence (Q13535 whole entry): as above
T2 sequence (Q8WXE1 whole entry partner): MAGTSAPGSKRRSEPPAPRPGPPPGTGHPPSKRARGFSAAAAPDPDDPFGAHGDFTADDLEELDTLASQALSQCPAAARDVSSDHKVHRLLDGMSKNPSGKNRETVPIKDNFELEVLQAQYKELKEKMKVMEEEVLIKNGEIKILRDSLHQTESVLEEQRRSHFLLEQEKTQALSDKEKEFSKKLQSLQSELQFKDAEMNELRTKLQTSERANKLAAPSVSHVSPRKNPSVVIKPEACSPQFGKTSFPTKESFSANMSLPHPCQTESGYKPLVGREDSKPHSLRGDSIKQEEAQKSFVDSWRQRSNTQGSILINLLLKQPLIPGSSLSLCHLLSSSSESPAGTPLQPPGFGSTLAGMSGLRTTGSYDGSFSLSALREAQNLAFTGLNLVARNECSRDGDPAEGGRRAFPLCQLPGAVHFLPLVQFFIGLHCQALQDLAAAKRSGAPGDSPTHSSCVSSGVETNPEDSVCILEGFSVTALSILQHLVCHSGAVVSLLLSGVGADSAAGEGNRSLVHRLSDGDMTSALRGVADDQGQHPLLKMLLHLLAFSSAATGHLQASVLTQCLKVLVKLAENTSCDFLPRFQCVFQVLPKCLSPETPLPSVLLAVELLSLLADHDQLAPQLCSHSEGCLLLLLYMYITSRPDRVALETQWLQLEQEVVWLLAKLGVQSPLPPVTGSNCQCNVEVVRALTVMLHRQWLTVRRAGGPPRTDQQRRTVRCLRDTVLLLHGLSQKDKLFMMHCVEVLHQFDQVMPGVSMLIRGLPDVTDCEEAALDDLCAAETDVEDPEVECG
Experimental: Compounds were screened for their ability to inhibit ATR kinase, in the presence of partner proteins ATRIP, CLK2 and TopBP1, using a radioactive-phosphate incorporation assay. Assays were carried out in a mixture of 50 mM Tris/HCl (pH 7.5), 10 mM MgCl2 and 1 mM DTT. Final substrate concentrations were 10 μM [g-33P]ATP (3.5 μCi 33P ATP/nmol ATP, Perkin Elmer, Massachusetts, USA) and 800 μM target peptide (ASELPASQPQPFSAKKK (SEQ. ID NO: 1)), Isca Biochemicals, Cambridgeshire, UK).
Assays were carried out at 25° C. in the presence of 4 nM full-length ATR, 40 nM full-length ATRIP, 40 nM full-length CLK2 and 600 nM TopBP1(A891-S1105). An enzyme stock buffer solution was prepared containing all of the reagents listed above, with the exception of target peptide, ATP and the test compound of interest. This enzyme stock was pre-incubated for 30 minutes at 25° C. […]
After removing mean background values for all of the data points, Ki(app) data were calculated from non-linear regression analysis of the initial rate data using the Prism software package (GraphPad Prism version 6.0c for Macintosh, GraphPad Software Inc., San Diego, USA).

Compound	pKi [1]	Cisplatin Sensitization Assay [2]	pKi [3]
Nc1nn2cc(F)cnc2c1C(=O)Nc1ccncc1N1CCN(C2COC2)CC1 [I-C-1, 2-amino-6-fluoro-N-(3-(4-(oxetan-3-yl)piperazin-1-yl)pyridin-4-yl)pyrazolo[1,5-a]pyrimidine-3-carboxamide]	6.00 to 8.00	++ (Compounds with a Cisplatin sensitization value >0.02 μM but <0.2 μM are marked with “++.”)	> 8.00
CN1CCN(C(=O)c2ccc(-c3cnncc3NC(=O)c3c(N)nn4cc(F)cnc34)cc2)CC1 [I-B-13, 2-amino-6-fluoro-N-(5-(4-(4-methylpiperazine-1-carbonyl)phenyl)pyridazin-4-yl)pyrazolo[1,5-a]pyrimidine-3-carboxamide]	6.00 to 8.00	++ (Compounds with a Cisplatin sensitization value >0.02 μM but <0.2 μM are marked with “++.”)	> 8.00
